EPA's ToxRefDB 2

How the values were obtained:
rabbit [1] = settings: Prenatal developmental toxicity study, new zealand white, Oral, Gavage/Intubation, dose end: 18 GD
dog = settings: Chronic toxicity, beagle, Oral, Feed, dose end: 104 week
rat [2] = settings: Prenatal developmental toxicity study, sprague dawley, Injection, Intraperitoneal, dose end: 15 GD
rat [3] = settings: Sub-acute repeat dose toxicity, sprague dawley, Oral, Gavage/Intubation, dose end: 28 day
rat [4] = settings: Prenatal developmental toxicity study, sprague dawley, Oral, Gavage/Intubation, dose end: 15 GD
rabbit [5] = settings: Prenatal developmental toxicity study, new zealand white, Oral, Gavage/Intubation, dose end: 18 GD; remark: listed apart in the source
rat [6] = settings: Prenatal developmental toxicity study, sprague dawley, Oral, Gavage/Intubation, dose end: 15 GD; remark: listed apart in the source
rat [7] = settings: Multigenerational reproductive toxicity study, sprague dawley, Oral, Feed, dose end: 2 generation
[8] = group: cholinesterase, cholinesterase / cholinesterase / cholinesterase / brain (regional) cholinesterase (che) + cholinesterase / cholinesterase / cholinesterase…
[9] = group: developmental, developmental / developmental malformation / bone / [other]
[10] = group: maternal, systemic / in life observation / body weight / body weight + systemic / in life observation / body weight / body weight gain + systemic / in…
[11] = group: cholinesterase, cholinesterase / cholinesterase / cholinesterase / plasma cholinesterase (che) + cholinesterase / cholinesterase / cholinesterase / brain …
[12] = group: systemic, systemic / clinical chemistry / alkaline phosphatase (alp/alk) / alkaline phosphatase (alp/alk)
[13] = group: developmental, systemic / in life observation / body weight / fetal weight
[14] = group: maternal, systemic / in life observation / clinical signs / [other] + systemic / in life observation / clinical signs / altered breathing rate + …
[15] = group: maternal, reproductive / reproductive performance / estrous cycle / abnormal
[16] = group: systemic, systemic / clinical chemistry / alanine aminotransferase (alt/sgpt) / alanine aminotransferase (alt/sgpt) + systemic / clinical chemistry / …
[17] = group: systemic, systemic / organ weight / uterus / relative to body weight + systemic / organ weight / seminal vesicle / relative to body weight
[18] = group: developmental, developmental / developmental malformation / bone / enlarged fontanel + developmental / developmental malformation / bone / incomplete …
[19] = group: maternal, systemic / in life observation / clinical signs / motor activity + systemic / in life observation / clinical signs / respiration (rales) + …
[20] = group: developmental, developmental / developmental malformation / bone / full supernumerary + developmental / developmental malformation / bone / incomplete …
[21] = group: maternal, reproductive / reproductive performance / postimplantation loss / postimplantation loss + systemic / in life observation / clinical signs / …
[22] = group: developmental, developmental / developmental malformation / bone / full supernumerary + developmental / developmental malformation / diaphragm / …
[23] = group: maternal, systemic / in life observation / body weight / body weight gain + systemic / in life observation / clinical signs / discharge on cageboard…
[24] = group: offspring, developmental / offspring survival late / lactation index / lactation index + developmental / offspring survival late / viability index / …
[25] = group: parental, systemic / in life observation / body weight / body weight + systemic / in life observation / body weight / body weight gain
[26] = group: parental, systemic / in life observation / body weight / body weight + systemic / in life observation / body weight / body weight gain + systemic / in…

## CCOP(=S)(NC(C)C)Oc1ccccc1C(=O)OC(C)C (stereo unspecified) [Isofenphos]
Rabbit [1]; [8]
  LEL: 1.25 mg/kg/day
  LOAEL: 1.25 mg/kg/day
  NEL: 0.25 mg/kg/day
  NOAEL: 0.25 mg/kg/day
Rabbit [1]; [9]
  LEL: 7.5 mg/kg/day
  LOAEL: > 7.5 mg/kg/day
  NEL: 1.25 mg/kg/day
  NOAEL: ≥ 7.5 mg/kg/day
Rabbit [1]; [10]
  LEL: 7.5 mg/kg/day
  LOAEL: 7.5 mg/kg/day
  NEL: 1.25 mg/kg/day
  NOAEL: 1.25 mg/kg/day
dog; group: cholinesterase, cholinesterase / cholinesterase / cholinesterase / plasma cholinesterase (che)
  LOAEL: 0.45 mg/kg/day
dog; [11]
  NEL: 0.09 mg/kg/day
  NOAEL: 0.09 mg/kg/day
dog; group: cholinesterase, cholinesterase / cholinesterase / cholinesterase / plasma cholinesterase (che) + cholinesterase / cholinesterase / cholinesterase / …
  LEL: 0.45 mg/kg/day
dog; [12]
  LEL: 3.43 mg/kg/day
  LOAEL: > 3.43 mg/kg/day
  NEL: 0.53 mg/kg/day
  NOAEL: ≥ 3.43 mg/kg/day

## CC(C)NCC(O)c1ccc(O)c(O)c1.Cl (stereo unspecified) [Isoproterenol hydrochloride]
Rat [2]; [13]
  LEL: 20 mg/kg/day
  LOAEL: > 80 mg/kg/day
  NEL: < 20 mg/kg/day
  NOAEL: ≥ 80 mg/kg/day
Rat [2]; [14]
  LEL: 20 mg/kg/day
  LOAEL: > 80 mg/kg/day
  NEL: < 20 mg/kg/day
  NOAEL: ≥ 80 mg/kg/day

## CC(=O)N1CCN(c2ccc(OC[C@@H]3CO[C@@](Cn4ccnc4)(c4ccc(Cl)cc4Cl)O3)cc2)CC1 [Ketoconazole]
Rat [3]; [15]
  LEL: 100 mg/kg/day
  LOAEL: > 100 mg/kg/day
  NEL: 25 mg/kg/day
  NOAEL: ≥ 100 mg/kg/day
Rat [3]; [16]
  LOAEL: > 100 mg/kg/day
  NOAEL: ≥ 100 mg/kg/day
Rat [3]; [17]
  LEL: 6.25 mg/kg/day
  NEL: < 6.25 mg/kg/day

## CC1COC(=O)O1 (stereo unspecified) [Propylene carbonate]
Rat [4]; [18]
  LEL: 5000 mg/kg/day
  LOAEL: 5000 mg/kg/day
  NEL: 3000 mg/kg/day
  NOAEL: 3000 mg/kg/day
Rat [4]; [19]
  LEL: 3000 mg/kg/day
  LOAEL: 3000 mg/kg/day
  NEL: 1000 mg/kg/day
  NOAEL: 1000 mg/kg/day

## CCCCOCCOC(=O)COc1nc(Cl)c(Cl)cc1Cl [Triclopyr-butotyl]
Rabbit [5]; [20]
  LEL: 100 mg/kg/day
  LOAEL: 100 mg/kg/day
  NEL: 30 mg/kg/day
  NOAEL: 30 mg/kg/day
Rabbit [5]; [21]
  LEL: 100 mg/kg/day
  LOAEL: 100 mg/kg/day
  NEL: 30 mg/kg/day
  NOAEL: 30 mg/kg/day
Rat [6]; [22]
  LEL: 300 mg/kg/day
  LOAEL: > 300 mg/kg/day
  NEL: 100 mg/kg/day
  NOAEL: ≥ 300 mg/kg/day
Rat [6]; group: maternal, systemic / in life observation / body weight / body weight gain
  LEL: 30 mg/kg/day
Rat [6]; [23]
  LOAEL: > 300 mg/kg/day
  NEL: 5 mg/kg/day
  NOAEL: ≥ 300 mg/kg/day

## CCOC(=O)C1CC(=O)C(=C(O)C2CC2)C(=O)C1 (stereo unspecified) [Trinexapac-ethyl]
Rat [7]; [24]
  LEL: 1250 mg/kg/day
  NEL: 592 mg/kg/day
Rat [7]; [25]
  LEL: 592 mg/kg/day
  LOAEL: 592 mg/kg/day
Rat [7]; [26]
  NEL: 59.1 mg/kg/day
  NOAEL: 59.1 mg/kg/day
